Tests used:
[1] = Drug metabolism in heparinized pooled human plasma at pH 7.5 assessed as formation of (S)-2-(2-(carboxymethoxy)-4-(5-((((R)-2-((R)-1-(N-hydroxyformamido)propyl)heptanamido)methyl)carbamoyl)furan-2-yl)benzamido)succinic acid at 100 to 2000 ng/ml incubated up to 4 or 24 hrs by LC-MS/MS analysis; type: ADME, cell-free; conditions: pH 7.5, 24 h
[2] = Reduction in PICP levels in human cardiac fibroblasts incubated for 24 to 48 hrs by ELISA; type: functional
[3] = Drug metabolism in heparinized pooled human plasma at pH 7.5 assessed as formation of (3-ethoxy-5-(5-((((R)-2-((R)-1-(N-hydroxyformamido)propyl)heptanamido)methyl)carbamoyl) furan-2-yl)phenyl)phosphonic acid at 100 to 2000 ng/ml incubated up to 4 or 24 hrs by LC-MS/MS analysis; type: ADME, cell-free; conditions: pH 7.5, 24 h

Row | SMILES | Drug metabolism [1] | Drug metabolism [3] | IC50 [2] [µM]
1 | CCCCC[C@@H](C(=O)NCNC(=O)c1ccc(-c2ccc(C(=O)N[C@@H](CC(=O)O)C(=O)O)c(OCC(=O)O)c2)o1)[C@@H](CC)N(C=O)OC(=O)N(C)C(=O)OC(C)(C)C | Metabolite_Detected | – | < 3.98
2 | CCCCC[C@@H](C(=O)NCNC(=O)c1ccc(-c2cc(OCC)cc(P(=O)(O)O)c2)o1)[C@@H](CC)N(C=O)OC(=O)NC(C)(C)c1ccccc1 | – | Metabolite_Detected | –
3 | CCCCC[C@@H](C(=O)NCNC(=O)c1ccc(-c2cc(OCC)cc(P(=O)(O)O)c2)o1)[C@@H](CC)N(C=O)OC(=O)c1c(C)cccc1F | – | Metabolite_Detected | –
4 | CCCCC[C@@H](C(=O)NCNC(=O)c1ccc(-c2ccc(C(=O)N[C@@H](CC(=O)O)C(=O)O)c(OCC(=O)O)c2)o1)[C@@H](CC)N(C=O)OC(=O)C(c1ccccc1)c1ccccc1 | Metabolite_Detected | – | < 3.98
5 | CCCCC[C@@H](C(=O)NCNC(=O)c1ccc(-c2ccc(C(=O)N[C@@H](CC(=O)O)C(=O)O)c(OCC(=O)O)c2)o1)[C@@H](CC)N(C=O)OC(=O)C1(C)CC1 | Metabolite_Detected | – | < 3.98
6 | CCCCC[C@@H](C(=O)NCNC(=O)c1ccc(-c2cc(OCC)cc(P(=O)(O)O)c2)o1)[C@@H](CC)N(C=O)OC(=O)c1ccc(N2CCOCC2)cc1 | – | Metabolite_Detected | –
7 | CCCCC[C@@H](C(=O)NCNC(=O)c1ccc(-c2ccc(C(=O)N[C@@H](CC(=O)O)C(=O)O)c(OCC(=O)O)c2)o1)[C@@H](CC)N(C=O)OC(=O)C(CCC)CCC | Metabolite_Detected | – | < 3.98
8 | CCCCC[C@@H](C(=O)NCNC(=O)c1ccc(-c2cc(OCC)cc(P(=O)(O)O)c2)o1)[C@@H](CC)N(C=O)OC(=O)c1ccccc1OC(=O)N(C)C | – | Metabolite_Detected | –
9 | CCCCC[C@@H](C(=O)NCNC(=O)c1ccc(-c2ccc(C(=O)N[C@@H](CC(=O)O)C(=O)O)c(OCC(=O)O)c2)o1)[C@@H](CC)N(C=O)OC(=O)c1ccc(OC)cc1C(C)C | Metabolite_Detected | – | < 3.98
10 | CCCCC[C@@H](C(=O)NCNC(=O)c1ccc(-c2ccc(C(=O)N[C@@H](CC(=O)O)C(=O)O)c(OCC(=O)O)c2)o1)[C@@H](CC)N(C=O)OC(=O)c1ccc2ccccc2c1 | Metabolite_Detected | – | < 3.98
11 | CCCCC[C@@H](C(=O)NCNC(=O)c1ccc(-c2ccc(C(=O)N[C@@H](CC(=O)O)C(=O)O)c(OCC(=O)O)c2)o1)[C@@H](CC)N(C=O)OC(=O)c1ccc(OC)c(OC)c1 | Metabolite_Detected | – | < 3.98
12 | CCCCC[C@@H](C(=O)NCNC(=O)c1ccc(-c2ccc(C(=O)N[C@@H](CC(=O)O)C(=O)O)c(OCC(=O)O)c2)o1)[C@@H](CC)N(C=O)OC(=O)Nc1ccccc1 | Metabolite_Detected | – | –
13 | CCCCC[C@@H](C(=O)NCNC(=O)c1ccc(-c2ccc(C(=O)N[C@@H](CC(=O)O)C(=O)O)c(OCC(=O)O)c2)o1)[C@@H](CC)N(C=O)OC(=O)NC(C)C | Metabolite_Detected | – | < 3.98
14 | CCCCC[C@@H](C(=O)NCNC(=O)c1ccc(-c2ccc(C(=O)N[C@@H](CC(=O)O)C(=O)O)c(OCC(=O)O)c2)o1)[C@@H](CC)N(C=O)OC(=O)NC(C)(C)c1ccccc1 | Metabolite_Detected | – | –
15 | CCCCC[C@@H](C(=O)NCNC(=O)c1ccc(-c2cc(OCC)cc(P(=O)(O)O)c2)o1)[C@@H](CC)N(C=O)OC(=O)c1ccc(-n2cccc2)cc1.N.N | – | Metabolite_Detected | –
16 | CCCCC[C@@H](C(=O)NCNC(=O)c1ccc(-c2ccc(C(=O)N[C@@H](CC(=O)O)C(=O)O)c(OCC(=O)O)c2)o1)[C@@H](CC)N(C=O)OC(=O)c1ccccc1OC(=O)N(C)C | Metabolite_Detected | – | –
17 | CCCCC[C@@H](C(=O)NCNC(=O)c1ccc(-c2ccc(C(=O)N[C@@H](CC(=O)O)C(=O)O)c(OCC(=O)O)c2)o1)[C@@H](CC)N(C=O)OC(=O)c1ccc(CN2CCOCC2)cc1 | Metabolite_Detected | – | < 3.98
18 | CCCCC[C@@H](C(=O)NCNC(=O)c1ccc(-c2ccc(C(=O)N[C@@H](CC(=O)O)C(=O)O)c(OCC(=O)O)c2)o1)[C@@H](CC)N(C=O)OP(=O)(N[C@@H](C)C(=O)OC)Oc1ccccc1.N.N.N (some centres not stated) | Metabolite_Detected | – | –
19 | CCCCC[C@@H](C(=O)NCNC(=O)c1ccc(-c2ccc(C(=O)N[C@@H](CC(=O)O)C(=O)O)c(OCC(=O)O)c2)o1)[C@@H](CC)N(C=O)OC(=O)c1ccc(CN2CCOCC2)cc1C | Metabolite_Detected | – | < 3.98
20 | CCCCC[C@@H](C(=O)NCNC(=O)c1ccc(-c2ccc(C(=O)N[C@@H](CC(=O)O)C(=O)O)c(OCC(=O)O)c2)o1)[C@@H](CC)N(C=O)OC(=O)NC(C)(C)C | Metabolite_Detected | – | < 3.98
21 | CCCCC[C@@H](C(=O)NCNC(=O)c1ccc(-c2ccc(C(=O)N[C@@H](CC(=O)O)C(=O)O)c(OCC(=O)O)c2)o1)[C@@H](CC)N(C=O)OC(=O)c1cccc2ccccc12 | Metabolite_Detected | – | < 3.98
22 | CCCCC[C@@H](C(=O)NCNC(=O)c1ccc(-c2ccc(C(=O)N[C@@H](CC(=O)O)C(=O)O)c(OCC(=O)O)c2)o1)[C@@H](CC)N(C=O)OC(=O)c1c(C)noc1C | Metabolite_Detected | – | < 3.98

Further lines, with some results ahead:

Row | Drug metabolism [1] | Drug metabolism [3] | SMILES | IC50 [2] [µM]
23 | Metabolite_Detected | – | CCCCC[C@@H](C(=O)NCNC(=O)c1ccc(-c2ccc(C(=O)N[C@@H](CC(=O)O)C(=O)O)c(OCC(=O)O)c2)o1)[C@@H](CC)N(C=O)OC(=O)c1c(C)cccc1F | –
24 | Metabolite_Detected | – | CCCCC[C@@H](C(=O)NCNC(=O)c1ccc(-c2ccc(C(=O)N[C@@H](CC(=O)O)C(=O)O)c(OCC(=O)O)c2)o1)[C@@H](CC)N(C=O)OC(=O)c1c(C)ccnc1C | < 3.98
25 | Metabolite_Detected | – | CCCCC[C@@H](C(=O)NCNC(=O)c1ccc(-c2ccc(C(=O)N[C@@H](CC(=O)O)C(=O)O)c(OCC(=O)O)c2)o1)[C@@H](CC)N(C=O)OC(=O)c1ccncc1C.N.N.N | < 3.98
26 | Metabolite_Detected | – | CCCCC[C@@H](C(=O)NCNC(=O)c1ccc(-c2ccc(C(=O)N[C@@H](CC(=O)O)C(=O)O)c(OCC(=O)O)c2)o1)[C@@H](CC)N(C=O)OC(=O)c1ccc(OC)cc1OC.N.N.N | < 3.98
27 | Metabolite_Detected | – | CCCCC[C@@H](C(=O)NCNC(=O)c1ccc(-c2ccc(C(=O)N[C@@H](CC(=O)O)C(=O)O)c(OCC(=O)O)c2)o1)[C@@H](CC)N(C=O)OC(=O)c1ccccc1C(C)C | < 3.98
28 | Metabolite_Detected | – | CCCCC[C@@H](C(=O)NCNC(=O)c1ccc(-c2ccc(C(=O)N[C@@H](CC(=O)O)C(=O)O)c(OCC(=O)O)c2)o1)[C@@H](CC)N(C=O)OC(=O)c1c(C)cccc1OC | < 3.98
29 | Metabolite_Detected | – | CCCCC[C@@H](C(=O)NCNC(=O)c1ccc(-c2ccc(C(=O)N[C@@H](CC(=O)O)C(=O)O)c(OCC(=O)O)c2)o1)[C@@H](CC)N(C=O)OC(=O)c1ccccc1N | < 3.98
30 | Metabolite_Detected | – | CCCCC[C@@H](C(=O)NCNC(=O)c1ccc(-c2ccc(C(=O)N[C@@H](CC(=O)O)C(=O)O)c(OCC(=O)O)c2)o1)[C@@H](CC)N(C=O)OC(=O)c1ccc(F)cc1C(C)C | < 3.98
31 | Metabolite_Detected | – | CCCCC[C@@H](C(=O)NCNC(=O)c1ccc(-c2ccc(C(=O)N[C@@H](CC(=O)O)C(=O)O)c(OCC(=O)O)c2)o1)[C@@H](CC)N(C=O)OC(=O)c1ccccc1NC | < 3.98

Reference: ChEMBL document CHEMBL4418493, “N-hydroxyformamide compounds and compositions comprising them for use as BMP1, TLL1 and/or TLL2 inhibitors” (2018)
